We go through 4 compounds from patent publication US20230355649A1, “FORMULATIONS OF ANTI-VIRAL COMPOUNDS” (priority 2020, published 2023).

Values after ≈ are worked out from the molar mass of the structure shown. Where two headings read alike, the source gives them in different places.

The conditions of series [1]: in vivo, cited from earlier work.
The conditions of series [2]: not told; cited from earlier work.
Details of series [3]: species or system Dog (Canis familiaris)/Beagle. As to conditions: dog, in vivo. The text has this:
For both IV or oral (PO) administered doses, blood samples were collected to determine the presence of analytes in PBMCs. Further details are detailed in Table 14. [table]

On the set-up of series [4]: species or system Dog (Canis familiaris)/Beagle. As to conditions: male, beagle, dog, in vivo, 20 mg/kg. The procedure:
An in vivo dog study in beagles was carried out to determine the pharmacokinetic (PK) profile of Remdesivir following 1) a single intravenous (IV) infusion of a control formulation and 2) an oral (PO) dose of an Example pharmaceutical composition ES040-72 according to the present invention.
For both IV or oral (PO) administered doses, plasma samples were collected over a period of 48 hours. Further details of the plasma collection are detailed in Table 13.

Series [5] relates to SARS-CoV-2 infected cell lines. The settings on record: shown in the literature; cited from earlier work.
The subject of a further series is human hepatocytes. In words: In vitro metabolism study of Remdesivir with human hepatocytes. The class given is in vitro ADME. Here is the method:
The Relative abundance (%) of metabolites post-incubation of Remdesivir (10 μM) was determined after culture with human hepatocytes (1.3 million cells/mL).
Samples were analysed by ultra-high performance liquid chromatography tandem mass spectrometry (UHPLC-MS/MS) with a quadrople time of flight mass spectrometer, for acquisition of high-resolution accurate mass data, with electrospray ionization incorporating in-line UV detection with a photodiode array detector.

Series [6] is described as follows: Dissolution and solubility study, Type II dissolution apparatus. The class given is physicochemical. The settings on record: drug substance powder in hard-gelatin capsule without excipients; 15 mg in 300 mL 0.4% Tween 80 in water, 100 rpm. The procedure: The solubility and/or dissolution of Remdesivir over time was determined for various pharmaceutical compositions using a Type II dissolution apparatus. The dissolution of the liquid formulation filled into hard-gelatin capsule and “as-is”, i.e. without being filled into the capsule shell were compared to the release of the non-formulated powder drug substance filled into the capsule, as well as the latter in combination with the solubilizing complexing agent, SBEβCD. The dissolution profiles were compared to that of acetaminophen drug substance filled into a hard-gelatin capsule. Acetaminophen has over 80% bioavailability in practice. […] At appropriate time intervals, about 1 mL aliquots of the dissolution media were withdrawn, filtered and tested using a high-pressure chromatographic assay method for Remdesivir. The area under the peak for the drug at the standard elution time was then compared against that of an external reference standard of Remdesivir to determine the concentration of dissolved Remdesivir at any given time.
Specifically, the Example formulation 1 (ES040-36) comprising Remdesivir was tested both as a solution added directly into the dissolution medium without being filled into a capsule shell to represent the release from an oral solution and also as filled into a hard-gelatin capsule. […]

For series [7] the following is noted: in vivo, iv; cited from earlier work.
The format of series [8] is physicochemical. The procedure:
In order to determine the stability of the prodrug Remdesivir at different pH, the stability of prodrug Remdesivir was tested over time at physiologically relevant pH of gastrointestinal media. The degradation of Remdesivir was determined by measuring the amount of unchanged Remdesivir using a suitable high pressure liquid chromatographic (HPLC) method and comparing the results against a pure reference sample of Remdesivir.

The nature of series [9]: physchem. The class given is physicochemical. From the text: The solubility of Remdesivir was screened in a range of different acids to test the effect of pH and acidity on Remdesivir solubility.
Series [10] is described as follows: physchem. The class given is physicochemical. As to conditions: aqueous with cosolvent or surfactant or cyclodextrin, read-out: Remdesivir Solubility.
Series [11] in a line: Remdesivir solubility in co-solvents. The series is classed as physicochemical.

For the compound `CC(=O)Nc1ccc(O)cc1` [Acetaminophen, acetaminophen], in [1], the bioavailability result is listed as “over 80%”.
For the compound `N#C[C@@]1(c2ccc3c(N)ncnn23)O[C@H](CO)[C@@H](O)[C@H]1O` [GS-441524], the “permeability through the intestinal membrane” value in series [2] is “poor permeability”. Moreover, in [3], the “detection in PBMC cells” value is reported as “detected”. In addition, the AUCinf in [4] (iv) was 22000 ± 1950 ng·h/mL; in series [4] (po), 21700 ± 2170 ng·h/mL. Moreover, the AUClast in series [4] (iv) came out at 19800 ± 2510 ng·h/mL; in [4] (po), 21500 ± 2100 ng·h/mL. Moreover, the oral bioavailability entry in series [1] (po) was “poor oral bioavailability”. Also, the “in vitro activity against SARS-CoV-2 infected cell lines” value in [5] is on record as “considerable in vitro activity”.
In the case of `C[C@H](NP(=O)(O)OC[C@H]1O[C@@](C#N)(c2ccc3c(N)ncnn23)[C@H](O)[C@@H]1O)C(=O)O` [GS-704277], the “Relative abundance of analytes post-incubation with Remdesivir” value in the series on human hepatocytes (2 h, Remdesivir 10 μM, human hepatocytes 1.3 million cells/mL) was 0.0%; in the series on human hepatocytes (6 h, Remdesivir 10 μM, human hepatocytes 1.3 million cells/mL) it was 2.4%; in the series with human hepatocytes (24 h, Remdesivir 10 μM, human hepatocytes 1.3 million cells/mL) it was 2.2%.
Turning to `CCC(CC)COC(=O)[C@H](C)N[P@](=O)(OC[C@H]1O[C@@](C#N)(c2ccc3c(N)ncnn23)[C@H](O)[C@@H]1O)Oc1ccccc1` [Remdesivir], the “dissolution of Remdesivir” value in [6] is “very slow dissolution”. Besides, the “plasma concentration relative to its own EC50” value in series [7] was “rapidly declines to well below its own EC50”. Moreover, the “stability / degradation of Remdesivir in solution” value in series [8] is “acceptable stability and minimal degradation”. Moreover, the solubility is 1690 µg/mL (≈ 2800 µM) in “physchem [9]” (pH 0.5); 950 µg/mL (≈ 1580 µM) in “physchem [9]” (pH 0.5, aqueous buffer, Solubility); 2490 µg/mL (≈ 4130 µM) in the series “physchem [9]” (pH 0.98, simulated gastric fluid, Solubility); 640 µg/mL (≈ 1060 µM) in the series “physchem [9]” (pH 1, aqueous buffer, Solubility); 980 µg/mL (≈ 1630 µM) in “physchem [9]” (pH 1.38, simulated gastric fluid, Solubility); 340 µg/mL (≈ 564 µM) in “physchem [9]” (pH 1.89, simulated gastric fluid, Solubility). In addition, the solubility stood at 5 µg/mL (≈ 8.3 µM) in “physchem [9]” (pH 2.91, aqueous buffer, Solubility); 10 µg/mL (≈ 16.6 µM) in “physchem [9]” (pH 3.5, aqueous buffer, Solubility); 1 µg/mL (≈ 1.66 µM) in the series “physchem [9]” (pH 4.74, aqueous buffer, Solubility); 0.9 µg/mL (≈ 1.49 µM) in the series “physchem [9]” (pH 6.18, aqueous buffer, Solubility); 0 µg/mL in “physchem [9]” (pH 6.72); 20 µg/mL (≈ 33.2 µM) in the series “physchem [10]” (Kolliphor EL (Polyoxyl 35 Castor Oil, Cremophor) 0.10 % w/w in water). Further, the solubility in “physchem [10]” (Poloxamer P407 0.07 % w/w in water) turned out to be 6 µg/mL (≈ 9.96 µM); in the series “physchem [10]” (TWEEN 20 (Polysorbate 20) 0.16 % w/w in water), 16 µg/mL (≈ 26.6 µM); in “physchem [10]” (TWEEN 80 (Polysorbate 80) 0.30 % w/w in water), 33 µg/mL (≈ 54.8 µM); in [11] (oil or lipid, Solubility), 15900 µg/mL (≈ 26400 µM); in series [11] (organic solvent or mixture, solvent Span 80, read-out: Solubility), 300 µg/mL (≈ 498 µM). The “Relative abundance of analytes post-incubation with Remdesivir” value with human hepatocytes (human, 2 h, 10 μM) came out at 4.8%; in the series with human hepatocytes (human, 6 h, 10 μM) it was 0.1%; in the series with human hepatocytes (human, 24 h, 10 μM), 0.7%.
